Counter-ions that a name gives are not always drawn. Like-named read-outs stand apart in the source and are kept apart here.
Experiments:
human NTCP [1] = target: T1, human NTCP (Homo sapiens, UniProt Q14973); assay: Screening fluorescent competitive Myrcludex B-FITC binding assay (96-well, 10 µM drug)
T1 sequence (Q14973 1-349): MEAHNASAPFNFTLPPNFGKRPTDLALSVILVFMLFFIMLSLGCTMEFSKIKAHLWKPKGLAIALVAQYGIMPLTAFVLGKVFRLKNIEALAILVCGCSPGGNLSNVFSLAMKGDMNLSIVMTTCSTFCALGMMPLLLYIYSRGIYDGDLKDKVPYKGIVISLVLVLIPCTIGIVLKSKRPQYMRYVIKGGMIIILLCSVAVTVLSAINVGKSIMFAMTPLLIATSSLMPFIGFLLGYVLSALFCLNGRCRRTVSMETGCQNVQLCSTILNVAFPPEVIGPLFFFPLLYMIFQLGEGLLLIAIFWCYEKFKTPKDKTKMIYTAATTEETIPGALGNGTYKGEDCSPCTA

human NTCP [2] = target: T1, human NTCP; assay: Screening taurocholate uptake assay (96-well, [14C]taurocholate, 10 µM drug)
[3] = Prestwick library screen, Myrcludex B-FITC binding, 10 µM drug
[4] = Prestwick library screen, taurocholate uptake, 10 µM drug
[5] = ranking score beside the functional and binding assay B-scores of the screen
[6] = screen, 10 µM drug, Myrcludex B-FITC binding
[7] = combined ranking from functional and binding screening assays
[8] = screen, 10 µM drug, taurocholate uptake
[9] = Prestwick library screen, 10 µM drug, B-score of Myrcludex B-FITC binding
[10] = Prestwick library screen, 10 µM drug, B-score of taurocholate uptake
[11] = combined ranking from functional and binding assay B-scores

SMILES	B-score binding assay (human NTCP [1]; [6])	Ranking score (human NTCP [2]; [7])	B-score functional assay (human NTCP [2]; [8])	B-score binding assay (human NTCP [1]; [9])	B-score functional assay (human NTCP [2]; [10])	Ranking score (human NTCP [2]; [11])	further results
CNCCC=C1c2ccccc2C=Cc2ccccc21 [Norcyclobenzaprine]							B-score binding assay (human NTCP [1]; [3]): -0.001; B-score functional assay (human NTCP [2]; [4]): 0.855; Ranking score (human NTCP [2]; [5]): 807.009
O=C(O)COC(=O)Cc1ccccc1Nc1c(Cl)cccc1Cl [Aceclofenac]	-0.456	377.221	-0.535				
c1ccc2[nH]c(-c3cscn3)nc2c1 [Tiabendazole]				0.306	0.849	925.084	
COc1ccc(CN(CCN(C)C)c2ccccn2)cc1 [Pyrilamine maleate]	0.121	458.048	-0.86				
CC[C@H]1OC(=O)C[C@@H](O)[C@H](C)[C@@H](O[C@@H]2O[C@H](C)[C@@H](O[C@H]3C[C@@](C)(O)[C@@H](O)[C@H](C)O3)[C@H](N(C)C)[C@H]2O)[C@@H](CC=O)C[C@@H](C)C(=O)/C=C/C(C)=C/[C@@H]1CO[C@@H]1O[C@H](C)[C@@H](O)[C@@H](OC)[C@H]1OC [Tylosin]				2.256	0.165	978.04	
Cc1c(-c2ccccc2)oc2c(C(=O)OCCN3CCCCC3)cccc2c1=O [Flavoxate hydrochloride]							B-score binding assay (human NTCP [1]; [3]): 1.224; B-score functional assay (human NTCP [2]; [4]): -0.169; Ranking score (human NTCP [2]; [5]): 734.394
COP(=O)(OC)C(O)C(Cl)(Cl)Cl (stereo not drawn) [Trichlorfon]	0.016	431.184	-0.853				
CN(C)CC/C=C1\c2ccccc2CSc2ccccc21 [Dosulepin hydrochloride]	0.311	296.985	-2.363				
Nc1cc(C(Cl)=C(Cl)Cl)c(S(N)(=O)=O)cc1S(N)(=O)=O [Clorsulon]							B-score binding assay (human NTCP [1]; [3]): -0.388; B-score functional assay (human NTCP [2]; [4]): 0.953; Ranking score (human NTCP [2]; [5]): 659.111
CCOC(=O)C1=C(COCCN)NC(C)=C(C(=O)OC)C1c1ccccc1Cl (stereo not drawn) [Amlodipine]				2.427	0.5	1057.69	
CC(=O)Oc1cc(C(F)(F)F)ccc1C(=O)O [Triflusal]	-0.002	440.15	-0.747				
CC(C)(S)C(N)C(=O)O (racemic) [D,L-Penicillamine]				0.477	0.176	845.872	
Cc1cc(C(C)(C)C)c(O)c(C)c1CC1=NCCN1 [Oxymetazoline hydrochloride]				2.755	0.493	1060.78	
O=C1CCC(N2C(=O)c3ccccc3C2=O)C(=O)N1 (stereo not drawn) [Thalidomide]				2.398	0.111	964.883	
O=c1oc2ccccc2c(O)c1Cc1c(O)c2ccccc2oc1=O [Dicumarol]	1.31	403.485	-1.792				
Cn1c([N+](=O)[O-])cnc1COC(N)=O [Ronidazole]	-0.252	432.42	-0.446				
NC[C@H]1O[C@H](O[C@H]2[C@H](O[C@@H]3O[C@H](CO)[C@@H](O)[C@H]3O)[C@@H](O)[C@H](N)C[C@@H]2N)[C@H](N)[C@@H](O)[C@@H]1O.O=S(=O)(O)O [Ribostamycin sulfate salt]				1.097	0.797	1035.72	
COc1ccc2[nH]c([S+]([O-])Cc3ncc(C)c(OC)c3C)nc2n1 (stereo not drawn) [Tenatoprazole]							B-score binding assay (human NTCP [1]): -1.326; B-score functional assay (human NTCP [2]): -1.232; Ranking score (human NTCP [2]): 199.975
COc1ccc(C(=O)c2ccccc2O)c(O)c1 [Dioxybenzone]	-0.95	401.91	0.002				
CC(C)(N)Cc1ccccc1.Cl [Phentermine hydrochloride]				0.892	2.461	1114.52	

— article PMC5681660, “Reduced hepatitis B and D viral entry using clinically applied drugs as novel inhibitors of the bile acid transporter NTCP” (Scientific Reports, 2017)
